From US20210300908A1, “S1P1 AGONIST AND APPLICATION THEREOF” (SHIJIAZHUANG SAGACITY SRUG SEVELOPMENT CO., LTD., priority 2016, published 2021)

Experiments:
[1] = Evaluation of compound pharmacokinetics in SD rats (intravenous injection and oral administration); assay type: in vivo; details: male, Sprague Dawley, rat, plasma, 2 mg/kg, 2 mpk; for clearance: read-out: Clearance rate; for AUC: read-out: Drug concentration integral: AUC; for half-life: read-out: Half-life period: T1/2 (converted); for bioavailability: oral, read-out: Fraction of bioavailability: F
Procedure: Aim of the experiments: To test pharmacokinetics of the compounds in SD rats. Experimental Materials: Sprague Dawley rats (male, 200-300 g, 7-9 weeks old, Shanghai Slack) Experimental Procedure: The rodent pharmacokinetic characteristics of the compounds after intravenous injection and oral administration were tested by the standard protocol. In the experiments, the transparent solution was prepared with the compounds to be test. The rats were administered single intravenous injection and oral administration. The solvent for intravenous injection and oral administration was aqueous hydroxypropyl β-cyclodextrin solution or normal saline solution with a certain concentration. Collect the blood samples within 24 hours and centrifuge at 3000 G for 15 minutes. Separate the supernatant to obtain the plasma samples. A volume of acetonitrile solution containing internal standard was added 4 times as the sample to precipitate the protein. The supernatant was obtained after centrifuge. An equal volume of water was added and then centrifuge again to collect the supernatant. The LC-MS/MS method was used to quantitatively analyze the blood drug concentration and the pharmacokinetic parameters such as peak concentration, peak time, clearance rate, half-life period, area under the curve of the drug concentration, and fraction of bioavailability, etc. were calculated.

S1P1 receptor = S1P1 receptor (Homo sapiens, UniProt P21453); experiment: S1P1 receptor agonistic activity (PathHunter cell strain, chemiluminescent signal detection); assay type: cell-based; details: PathHunter cells, agonist mode, 37° C. 90-180 minutes
Procedure: Test Method: […] Cell Processing i) Thaw the PathHunter cell strain according to the standard procedures. ii) Seed the cell in the 20 μL 384-microwell plate and incubate at 37° C. for an appropriate period. 2. Agonist i) For agonist testing, cells were incubated with the sample to be test to initiate a reaction; ii) The stock solution to be tested has been diluted 5 folds to be a buffer solution; iii) Inject the 5-fold diluted solution (5 μL) into the cells and incubate at 37° C. for 90-180 minutes. […] 3. Signal Detection i) Add 12.5 μL or 15 μL PathHunter detection reagent (50 vol. %) in one portion. Then, incubate at room temperature for 1 hour and generate the detection signal; ii) Use PerkinElmer Evision™ instrument to read the microwell plate to proceed with chemiluminescent signal detection. 4. Data Analysis i) Use CBIS data analysis system for the compound activity analysis. ii) Calculation formula: […]

S1P1 receptor, sequence (P21453 whole entry): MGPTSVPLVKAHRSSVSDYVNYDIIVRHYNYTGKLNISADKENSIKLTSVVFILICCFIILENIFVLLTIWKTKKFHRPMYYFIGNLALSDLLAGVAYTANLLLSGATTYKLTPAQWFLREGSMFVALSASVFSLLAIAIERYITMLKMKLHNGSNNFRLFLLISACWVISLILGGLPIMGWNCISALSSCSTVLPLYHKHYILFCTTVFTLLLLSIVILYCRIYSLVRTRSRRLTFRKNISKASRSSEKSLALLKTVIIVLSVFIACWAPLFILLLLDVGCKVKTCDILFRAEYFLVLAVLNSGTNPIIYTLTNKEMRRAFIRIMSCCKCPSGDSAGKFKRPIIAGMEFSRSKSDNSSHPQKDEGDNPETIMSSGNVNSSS

SMILES | EC50 (S1P1 receptor) [nM] | other results
CC(C)Oc1ccc(-c2nc(-c3cccc4c3C[C@@H]3OC(=O)N(CCO)[C@H]43)no2)cc1C#N (relative stereo) [Example 50] | < 10 | clearance [1]: 6.59 mL/min/kg; AUC [1]: 8.52 µM·h; half-life [1]: 4.82 h; bioavailability [1]: 72.4%
CC(C)Oc1ccc(-c2nc(-c3cccc4c3CC3CC(=O)N(CCO)C43)no2)cc1C#N (stereo not shown) [Example 1 Mixture] | < 10 | –
CC(C)Oc1ccc(-c2ncc(-c3cccc4c3CC3CC(=O)N(CCO)C43)s2)cc1C#N (stereo not shown) [Example 2] | < 10 | –
CC(C)Oc1ccc(-c2nnc(-c3cccc4c3CC3CC(=O)N(CCO)C43)s2)cc1C#N (stereo not shown) [Example 3] | < 10 | –
CC(C)Oc1ccc(-c2ncc(-c3cccc4c3CC3CC(=O)N(CCO)C43)o2)cc1C#N (stereo not shown) [Example 4] | < 10 | –
CC(C)Oc1ccc(-c2ccc(-c3cccc4c3CC3CC(=O)N(CCO)C43)s2)cc1C#N (stereo not shown) [Example 5] | < 10 | –
CC(C)Oc1ccc(-c2nc(-c3cccc4c3CC3CC(=O)N(CCO)C43)ns2)cc1C#N (stereo not shown) [Example 6] | < 10 | –
CC(C)Oc1ccc(-c2nsc(-c3cccc4c3CC3CC(=O)N(CCO)C43)n2)cc1C#N (stereo not shown) [Example 7] | < 10 | –
CC(C)Oc1ccc(-c2nc(-c3cccc4c3CC3CC(=O)N(CCC(=O)O)C43)no2)cc1C#N (stereo not shown) [Example 9] | < 10 | –
CC(C)Oc1ccc(-c2nc(-c3cccc4c3CC3CC(=O)N(CCCC(=O)O)C43)no2)cc1C#N (stereo not shown) [Example 10] | < 10 | –
CC(C)Oc1ccc(-c2nc(-c3cccc4c3CC3CC(=O)N(CCCCC(=O)O)C43)no2)cc1C#N (stereo not shown) [Example 11] | < 10 | –
COCCN1C(=O)CC2Cc3c(-c4noc(-c5ccc(OC(C)C)c(C#N)c5)n4)cccc3C21 (stereo not shown) [Example 12] | < 10 | –
CC(C)Oc1ccc(-c2nc(-c3cccc4c3CC3CC(=O)N(CCS(C)(=O)=O)C43)no2)cc1C#N (stereo not shown) [Example 13] | < 10 | –
CC(C)Oc1ccc(-c2nc(-c3cccc4c3CC3CC(=O)N(CC(O)CO)C43)no2)cc1C#N (stereo not shown) [Example 14] | < 10 | clearance [1]: 7.22 mL/min/kg; AUC [1]: 5.76 µM·h; half-life [1]: 3.27 h; bioavailability [1]: 59%
CC(C)Oc1ccc(-c2nc(-c3cccc4c3CC3CC(=O)N(CC(=O)N(C)C)C43)no2)cc1C#N (stereo not shown) [Example 15] | 10 to 100 | –
O=C1CC2Cc3c(-c4noc(-c5ccc(OC(F)F)cc5)n4)cccc3C2N1CCO (stereo not shown) [Example 16] | > 100 | –
N#Cc1cccc(-c2nc(-c3cccc4c3CC3CC(=O)N(CCO)C43)no2)c1 (stereo not shown) [Example 17] | > 100 | –
COc1ccc(-c2nc(-c3cccc4c3CC3CC(=O)N(CCO)C43)no2)cc1 (stereo not shown) [Example 18] | > 100 | –
O=C1CC2Cc3c(-c4noc(-c5ccc(OC(F)(F)F)cc5)n4)cccc3C2N1CCO (stereo not shown) [Example 19] | > 100 | –
CC(C)Oc1cccc(-c2nc(-c3cccc4c3CC3CC(=O)N(CCO)C43)no2)c1 (stereo not shown) [Example 20] | > 100 | –
O=C1CC2Cc3c(-c4noc(-c5ccc(OC6CC6)cc5)n4)cccc3C2N1CCO (stereo not shown) [Example 21] | > 100 | –
CC(C)Oc1ccccc1-c1nc(-c2cccc3c2CC2CC(=O)N(CCO)C32)no1 (stereo not shown) [Example 22] | > 100 | –
O=C1CC2Cc3c(-c4noc(-c5ccc(OCC6CC6)cc5)n4)cccc3C2N1CCO (stereo not shown) [Example 23] | > 100 | –
COCOc1ccc(-c2nc(-c3cccc4c3CC3CC(=O)N(CCO)C43)no2)cc1 (stereo not shown) [Example 24] | > 100 | –
CC(C)Oc1ccc(-c2nc(-c3cccc4c3CC3CC(=O)N(CCO)C43)no2)cc1Br (stereo not shown) [Example 25] | < 10 | –
CC(C)Oc1ccc(-c2nc(-c3cccc4c3CC3CC(=O)N(CCO)C43)no2)cc1Cl (stereo not shown) [Example 26] | < 10 | clearance [1]: 7.5 mL/min/kg; AUC [1]: 4.35 µM·h; half-life [1]: 26.7 h; bioavailability [1]: 88.2%
CC(C)Oc1ccc(-c2nc(-c3cccc4c3CC3CC(=O)N(CCO)C43)no2)cc1C(F)F (stereo not shown) [Example 27] | < 10 | clearance [1]: 8.86 mL/min/kg; AUC [1]: 4.78 µM·h; half-life [1]: 21.2 h; bioavailability [1]: 92.6%
CN(C)CCOc1ccc(-c2nc(-c3cccc4c3CC3CC(=O)N(CCO)C43)no2)cc1 (stereo not shown) [Example 28] | > 100 | –

SMILES | EC50 (S1P1 receptor) [nM] | other results
Cc1nc(C)c(-c2nc(-c3cccc4c3CC3CC(=O)N(CCO)C43)no2)o1 (stereo not shown) [Example 29] | > 100 | –
CCCc1nnsc1-c1nc(-c2cccc3c2CC2CC(=O)N(CCO)C32)no1 (stereo not shown) [Example 30] | > 100 | –
O=C1CC2Cc3c(-c4noc(-c5nc6ccccn6c5F)n4)cccc3C2N1CCO (stereo not shown) [Example 31] | > 100 | –
O=C1CC2Cc3c(-c4noc(-c5csc(-c6ccccc6)n5)n4)cccc3C2N1CCO (stereo not shown) [Example 32] | > 100 | –
CN1CCc2nc(-c3nc(-c4cccc5c4CC4CC(=O)N(CCO)C54)no3)sc2C1 (stereo not shown) [Example 33] | > 100 | –
CC(C)c1ncc(-c2nc(-c3cccc4c3CC3CC(=O)N(CCO)C43)no2)s1 (stereo not shown) [Example 34] | > 100 | –
O=C1CC2Cc3c(-c4noc(-c5cnc6ncccn56)n4)cccc3C2N1CCO (stereo not shown) [Example 35 Compound 35-2] | > 100 | –
O=C1CC2Cc3c(-c4noc(-c5cn6cccnc6n5)n4)cccc3C2N1CCO (stereo not shown) [Example 35 Compound 35-3] | > 100 | –
O=C1CC2Cc3c(-c4noc(-c5cn6c(n5)CCCC6)n4)cccc3C2N1CCO (stereo not shown) [Example 36] | > 100 | –
O=C1CC2Cc3c(-c4noc(-c5cc(-c6nccs6)on5)n4)cccc3C2N1CCO (stereo not shown) [Example 37] | > 100 | –
O=C1CC2Cc3c(-c4noc(-c5cn(Cc6ccccc6)nn5)n4)cccc3C2N1CCO (stereo not shown) [Example 38] | > 100 | –
CC(C)Oc1ccc(-c2nc(-c3cccc4c3CC3CC(=O)N(CCO)C43)no2)cc1 (stereo not shown) [Example 39] | 10 to 100 | –
CC(C)Oc1ccc(-c2nc(-c3cccc4c3CC3CC(=O)N(CCO)C43)no2)cc1OC(F)F (stereo not shown) [Example 40] | < 10 | clearance [1]: 14.1 mL/min/kg; AUC [1]: 0.444 µM·h; half-life [1]: 10.7 h; bioavailability [1]: 82.3%
CC(C)Oc1ccc(-c2nc(-c3cccc4c3CC3CC(=O)N(CCO)C43)no2)cc1OCCN(C)C (stereo not shown) [Example 41] | > 100 | –
CC(C)Oc1ccc(-c2nc(-c3cccc4c3CC3CC(=O)N(CCO)C43)no2)c(C#N)c1 (stereo not shown) [Example 42] | > 100 | –
CC(C)Oc1ccc(-c2nc(-c3cccc4c3CC3CC(=O)N(CCO)C43)no2)cc1S(C)(=O)=O (stereo not shown) [Example 43] | 10 to 100 | –
COc1cc(-c2nc(-c3cccc4c3CC3CC(=O)N(CCO)C43)no2)cc(C2CCCC2)n1 (stereo not shown) [Example 44] | 10 to 100 | –
CC(C)Oc1ccc(-c2nc(-c3cccc4c3CC3CCC(=O)N(CCO)C43)no2)cc1C#N (stereo not shown) [Example 45] | < 10 | –
CC(C)Oc1ccc(-c2nc(-c3cccc4c3CCC3CC(=O)N(CCO)C43)no2)cc1C#N (stereo not shown) [Example 46] | < 10 | –
CC(C)Oc1ccc(-c2nc(-c3cccc4c3CC3CC(=O)N(CCOS(=O)(=O)O)[C@H]43)no2)cc1C#N (stereo partly shown) [Example 47] | < 10 | –
CC(C)Oc1ccc(-c2nc(-c3cccc4c3CC3CCN(CCO)C43)no2)cc1C#N (stereo not shown) [Example 49] | 10 to 100 | –
CC(C)Oc1ccc(-c2nnc(-c3cccc4c3C[C@@H]3CC(=O)N(CCO)[C@H]43)o2)cc1C#N [Example 51] | < 10 | –
CC(C)Oc1ccc(-c2nc(-c3cccc4c3CC3CCN(CC(=O)O)C43)no2)cc1C#N (stereo not shown) [Example 52] | < 10 | –
CC(C)Oc1ccc(-c2nc(-c3cccc4c3C[C@@H]3CCN(C5CC(C(=O)O)C5)C43)no2)cc1C#N (stereo partly shown) [Example 53] | < 10 | –
CC(C)Oc1ccc(-c2nc(-c3cccc4c3CC3CC(=O)N(CCO)[C@H]43)n[nH]2)cc1C#N (stereo partly shown) [Example 54] | 10 to 100 | –
CC(C)Oc1ccc(-c2nc(-c3cccc4c3C[C@@H]3CC(=O)N([C@@H](CO)C(C)C)C43)no2)cc1C#N (stereo partly shown) [Example 55] | 10 to 100 | –
CC(C)Oc1ccc(-c2nc(-c3cccc4c3C[C@@H]3CC(=O)N([C@H](C)CO)C43)no2)cc1C#N (stereo partly shown) [Example 56] | < 10 | clearance [1]: 14.6 mL/min/kg; AUC [1]: 3.32 µM·h; half-life [1]: 1.63 h; bioavailability [1]: 66.7%
